Consider 7 compounds from US20260215422A1, “HERBICIDAL COMPOSITIONS” (SYNGENTA CROP PROTECTION AG, priority 2022, published 2026).

One assay concerns RW478-16. The assay can be described thus: Additional testing of Group 12 herbicides with other HPPD inhibitor herbicides (Table 7), Colby. It counts as in vivo, Amaranthus sp. (AMAPA). The note with it: for Observed Product 1-(Group 12): Group 12 herbicide alone 15.8 g/ha. An excerpt: (§1) When active ingredients are combined, the activity to be expected (E) for any given active ingredient combination obeys the so-called Colby Formula and can be calculated as follows (Colby, S. R., Calculating synergistic and antagonistic responses of herbicide combination, Weeds, Vol. 15, pages 20-22; 1967): • ppm=milligrams of active ingredient (a.i.) per liter • X=% action by first active ingredient using p ppm of the active ingredient • Y=% action by second active ingredient using q ppm of the active ingredient.
(§2) According to Colby, the expected action of active ingredients A+B using p+q ppm of active ingredient is represented by the following formula:
(§3) [formula] • If the action actually observed (O) is greater than the expected action E then the action of the combination is super-additive, i.e. there is a synergistic effect. In mathematical terms, synergism corresponds to a positive value for the difference of (O-E). In the case of purely complementary addition of activities (expected activity), said difference (O-E) is zero. A negative value of said difference (O-E) signals a loss of activity compared to the expected activity.
(§4) Additional testing within the scope of disclosure was performed using other HPPD inhibitor herbicides and Group 12 herbicides.

The next assay relates to S129. Described as above. It counts as in vivo, Amaranthus sp. (AMAPA). The note with it: for Observed Product 1-(Group 12): Group 12 herbicide alone 15.8 g/ha.
Source text: as §1, §2, §3, §4

For another assay, the system named is HPPD resistant AMATA. The assay can be described thus: Field trial of dent corn, control 34 days after application. The class given is in vivo, common waterhemp, Amaranthus rudis Sauer. The note with it: 70 g ai/ha diflufenican. On the procedure:
Diflufenican, was already very active on HPPD-R AMAPA providing 98% control alone at 35 g ai/ha, the rate used in mixture with MST+BIR making it difficult to determine if there was synergy between the herbicides. Nevertheless, additional data regarding diflufenican and MST+BIR was obtained during field trials of dent corn.
During the field trial, HPPD resistant AMATA (common waterhemp, Amaranthus rudis Sauer) was tested as follows: • 1) 70 g ai/ha diflufenican—providing 55% control • 2) 202 g ai/ha MST+50 g ai/ha BIR—providing 30% control • 3) 70 g ai/ha diflufenican+202 g ai/ha MST+50 g ai/ha BIR—providing 92% control.
The results were collected 34 days after application. The inclusion of a Group 12 herbicide with at least one HPPD-inhibitor, specifically MST+BIR, provided surprising control of HPPD-resistant weeds.

The next assay deals with Group 27 resistant AMAPA. The assay can be described thus: Greenhouse preemergence trial, % control at 29 days after application. The class given is in vivo, Palmer amaranth.
In assay [1] the test system is sensitive (S-129) Amaranthus sp. (AMAPA). The assay can be described thus: Pre-emergent synergy test of DFF with MST + BIR (Tables 1-3), Colby. Particulars: pre-emergence, 528 h, 22 days after treatment, read-out: Activity (% control) (S-129). The class given is in vivo.
Source text: as §1, §2, §3
(§5) Synergy was further tested for in sensitive (S-129) and HPPD-resistant (RW478-16) Amaranthus sp. (AMAPA) in pre-emergent tests according to the treatments in Table 1 below.
(§6) Dose responses rates were calculated for the treatments at 22 days after treatment which are provided in FIGS. 3 and 4, and further summarized in Table 2.

Assay [2] concerns HPPD-resistant (RW478-16) Amaranthus sp. (AMAPA). The assay is described as above. It counts as in vivo. Particulars: pre-emergence, 528 h, 22 days after treatment, read-out: Activity (% control) (RW478-16).
Source text: as §1, §2, §3, §5, §6

Assay [3] deals with sensitive (S-129) Amaranthus sp. (AMAPA). The assay can be described thus: Pre-emergent synergy test of PIC with MST + BIR (Tables 4-6), Colby. It counts as in vivo. Particulars: 22 days after treatment.
Source text: as §1, §2, §3, §5
(§7) Similar tests were performed with picolinafen (PIC) and mesotrione+bicyclopyrone (MST+BIR), as summarized by Table 4.

For assay [4], the system named is HPPD-resistant (RW478-16) Amaranthus sp. (AMAPA). The assay is described as above. The class given is in vivo. Particulars: 22 days after treatment.
Source text: as §1, §2, §3, §5, §7

The mark [5] stands for this setting: (IFT 12.3) g/ha without Group 12.
Setting [6] is: (MST 25.3) g/ha without Group 12.
The mark [7] stands for this setting: (BIR 6.3) g/ha without Group 12.

For `CCC(Oc1ccc(F)c(C(F)(F)F)c1)C(=O)NCc1ccccc1` (centres unmarked) [BFB, beflubutamid], the entries for the “Observed Product 1-(Group 12)” value in the assay on RW478-16 and in the assay on S129 were 37% and 67%, respectively.
Regarding `O=C(Nc1ccc(F)cc1F)c1cccnc1Oc1cccc(C(F)(F)F)c1` [DFF, diflufenican], in the assay on HPPD resistant AMATA, the “% control of HPPD resistant AMATA” value worked out at 55%. Besides, the “% control of HPPD-R AMAPA” value in the assay on Group 27 resistant AMAPA (alone at 35 g ai/ha) came to 98%. Further, the results for the “Observed Product 1-(Group 12)” value with RW478-16 and with S129 were 70% and 99%, respectively. The inhibition at 1.58 g/ha in assay [1] (DFF 1.58 g ai/ha alone) amounted to 100%; in assay [2] (DFF 1.58 g ai/ha alone), 77%. In addition, the inhibition at 2.11 g/ha came out at 94% in assay [1] (DFF 2.11 g ai/ha alone) and 53% in assay [2] (DFF 2.11 g ai/ha alone). In addition, the results for the inhibition at 3.16 g/ha in assay [1] (DFF 3.16 g ai/ha alone) and in assay [2] (DFF 3.16 g ai/ha alone) were 72% and 45%, respectively. Also, the inhibition at 7.9 g/ha in assay [1] (DFF 7.9 g ai/ha alone) was found to be 23%; in assay [2] (DFF 7.9 g ai/ha alone), 22%. In addition, the inhibition at 15.8 g/ha amounted to 10% in assay [1] (DFF 15.8 g ai/ha alone) and 18% in assay [2] (DFF 15.8 g ai/ha alone). Besides, the inhibition at 31.6 g/ha was found to be 13% in assay [1] (DFF 31.6 g ai/ha alone) and 3% in assay [2] (DFF 31.6 g ai/ha alone).
Consider `O=C1C(Cl)C(CCl)CN1c1cccc(C(F)(F)F)c1` (centres unmarked) [FLU, flurochloridone], for which the “Observed Product 1-(Group 12)” value turned out to be 27% in the assay with RW478-16 and 57% in the assay with S129.
For `CS(=O)(=O)c1cc(C(F)(F)F)ccc1C(=O)c1cnoc1C1CC1` [IFT, isoxaflutole], the results for the “Observed Product 2-(HPPDs)” value with RW478-16 (setting [5]) and in the assay with S129 (setting [5]) were 37% and 98%, respectively.
Take `CS(=O)(=O)c1ccc(C(=O)C2C(=O)CCCC2=O)c([N+](=O)[O-])c1` [MST, mesotrione]: the “Observed Product 2-(HPPDs)” value with RW478-16 (setting [6]) turned out to be 28%; in the assay on S129 (setting [6]), 100%.
For `O=C(Nc1ccc(F)cc1)c1cccc(Oc2cccc(C(F)(F)F)c2)n1` [PIC, picolinafen], the “Activity (% control) (S-129)” value is recorded as 10% in assay [3] (PIC 1.58 g ai/ha alone); 22% in assay [3] (PIC 2.11 g ai/ha alone); 17% in assay [3] (PIC 3.16 g ai/ha alone); 30% in assay [3] (PIC 7.9 g ai/ha alone); 53% in assay [3] (PIC 15.8 g ai/ha alone); 72% in assay [3] (PIC 31.6 g ai/ha alone). The “Activity (% control) (RW478-16)” value in assay [4] (PIC 1.58 g ai/ha alone) was 0%; in assay [4] (PIC 2.11 g ai/ha alone), 7%; in assay [4] (PIC 3.16 g ai/ha alone), 10%; in assay [4] (PIC 7.9 g ai/ha alone), 10%; in assay [4] (PIC 15.8 g ai/ha alone), 40%; in assay [4] (PIC 31.6 g ai/ha alone), 53%. Further, in the assay on Group 27 resistant AMAPA (Picolinafen 35 g ai/ha alone), the “control of HPPD-Resistant AMAPA” value is reported as “did not adequately control”. Further, the “Observed Product 1-(Group 12)” value was 28% with RW478-16 and 77% in the assay with S129.
As for bicyclopyrone [BIR], the “Observed Product 2-(HPPDs)” value worked out at 20% in the assay on RW478-16 (setting [7]) and 57% in the assay on S129 (setting [7]).
